Laboratory results published in US7282215B2, “Supports for photosensitizer formulations” (The University of British Columbia, priority 2000, dated 2007).
Marks after values point to notes of the source that are not given here.

How the values were obtained:
[1] = Drug loading of liposomal versus 10% P123 formulations; assay type: physicochemical; details: prepared at 2 mg/ml
Method: 5 mg drug and lipids (40% EPG in DMPC) are combined in CH2Cl2 at a drug to lipid ratio of 1:10 w/w in 250 ml round bottom flask. The maximum concentration of drug in solvent is 2 mg/ml. CH2Cl2 is removed rapidly as described in Example 5. The resulting thin film is hydrated with 2.5 ml lactose solution (9.5% w/v) using hand swirling with glass beads at 40° C. Extrusion using Model 4T (Lipex Biomembranes Inc. B.C., Canada) is carried out with the thermostat set at 40° C. The multilamellar vesicles (MLVs) arising from hydration steps of the liposomal formulation were also examined under the microscope. MLVs are successively extruded 5 times through each of the 400 nm, 200 nm and 100 nm polycarbonate membranes (Nuclepore PC, Costar). Extruded samples were diluted 1:100 in PBS (pH 7.4) and the absorbance determined at 690 nm wavelength.
In this experiment liposomal and block copolymer (micellar) photosensitizer formulations of A- and B-ring compounds of EA6 and B3 were compared. Each of the photosensitizer samples was prepared at a final drug concentration of 2 mg/ml. The block copolymer P123, and the liposomal formulations were prepared as described in the Examples 5 and 6, respectively.

L1210 cells [2] = assay: In vitro cellular uptake of photosensitizer formulations; assay type: cell-based; details: 3 μg/ml, DMEM 10% FBS, B-B3 in P123 copolymer, BPD-MA liposomal
Method: The protocol for setting up the cell cultures and conditions for the cellular assay essentially followed Richter et al. (Proc. SPIE, 2078: 293-304, September 1993). L1210 cells in DMEM and 10% FBS (single experiment, 3 sets) were incubated with the formulations at a concentration of 3 μg/ml and examined for uptake in the cells over time. Cells were recovered by centrifugation, the pellet briefly rinsed, and the cells lysed by freeze thawing in the presence of 2% Triton X-100®. An equal volume of methanol was added and fluorescence was read at 694 nm (λex 440 nm).

L1210 cells [3] = assay: In vitro phototoxicity (MTT assay after light exposure); assay type: cell-based
Method: Exposure to drugs was carried out in the presence and absence of fetal calf serum (FCS) as a model to study transfer of drug to cells in vivo. […] A suspension of L1210 cells was prepared and exposed to various drug formulations (drug concentrations ranging from 0-50 ng/ml) either in the absence or presence of 10% fetal calf serum (FCS). One hour later, the drug was removed by pelleting the cells by centrifugation. The pellet was briefly washed with 1 ml DME and resuspended in 5% FCS/DME. 100 μl of the cell suspension was aliquoted into 6 wells of a 96 well plate, and the plate exposed to light at 10 J/cm^2. Viability was determined 24 h post exposure using the MTT assay (Mosmann, J. Immunol. Meth. 65:55-63, 1983).

[4] = test system: M1 rhabdomyosarcoma tumor; assay: PDT tumor recurrence in tumor mouse model; assay type: in vivo, DBA/2 mouse
Method: Photosensitizer formulations were prepared in 10% w/v Pluronics as described in Example 4. BPD-MA was formulated in F127. B-ring compounds B-EA6 and B-B3, were prepared in P123 due to insufficient drug loading in F127. Liposomal BPD-MA formulation was Verteporfin™ and B-ring compounds were formulated in the same lipid composition. Where DMSO/plasma preparations were made, the DMSO dissolved drug was added directly to mouse plasma and the drug association with different plasma components was observed.
In these experiments the tumor model used was the DBA/2 mouse (males) inoculated intradermally with M1 rhabdomyosarcoma tumor cells (M1, ATCC. When tumors reached a diameter of 4-6 mm, the mice (n=10, unless other wise stated) were treated with photodynamic therapy (PDT). PDT involved intravenous injection of the formulated drug in 0.2 mL volume of PBS. This was followed by exposure of the tumor region to laser light (Argon pumped dye laser (5W), 690 nm, 50J/cm2) 15 min later. Animals were then monitored for tumor recurrence over a 20 day period post treatment.

[5] = Drug loading attainable in 10% P123 (summary); assay type: physicochemical
Method: In the Example section below, formulation of the following A-ring compounds: BPD-MA, A-EA6, A-B3; B-ring compounds; B-EA6, and B-B3; and other photosensitizers such as dihydroxychlorins and pyropheophorbides, with P123 illustrate the versatility of this particular block copolymer. This includes A-ring compounds such as BPD-MA where block copolymers could be used to formulate an alternative product to a concentration as high as 4 mg/ml in 10% P123, and also A-EA6 and A-B3, all of which formulate very readily. B-ring compounds have lower drug loading characteristics, but concentrations of approximately 1.8 mg/ml are typical for B-B3, and lower for B-EA6. A wide range of other compounds e.g. pyropheophorbides and various dihydroxychlorins also formulate with ease to give final formulations at 2 mg/ml in 10% P123 in non-optimized systems. Therefore both the drug loading, and stability could be improved further by adjustments to composition, pH, and/or methodology of formulation.

[6] = Carrier Liposomal, −FCS, 1 h drug, light 10 J/cm^2, MTT 24 h
[7] = Liposomal, 1.0 mg/kg i.v., 690 nm 50J/cm2 15 min later, Day 7

C=Cc1c(C)c2cc3nc(cc4[nH]c(cc5nc(cc1[nH]2)C1(C)C5=CC=C(C(=O)O)C1C(=O)OC)c(C)c4CCC(=O)OC)C(CCC(=O)OC)=C3C (stereo not drawn) [B-B3]
Drug loading, P123 ([1]; Pluronic P123 10% weight/volume): 1.24 mg/mL
Drug loading, Liposome ([1]; liposomal formulation): Very low
Incubation time to 50% uptake level (L1210 cells [2]): close to ‘zero’ incubation time
Incubation time to peak / saturation of uptake (L1210 cells [2]): around 20 min
LD50 (L1210 cells [3]; Carrier Copolymer (P123), +FCS (10%)): 16.6* ng/ml
LD50 (L1210 cells [3]; Carrier Copolymer (P123), −FCS): 0.68* ng/ml
LD50 (L1210 cells [3]; Carrier DMSO, +FCS (10%)): 37.0 ng/mL
LD50 (L1210 cells [3]; Carrier DMSO, −FCS): 7.2 ng/mL
LD50 (L1210 cells [3]; Carrier Liposomal, +FCS (10%)): 30.0 ng/mL
LD50 (L1210 cells [3]; [6]): 3.0 ng/mL
Percent (%) Mice Tumor Free [4, 7]: 0^2%
Percent (%) Mice Tumor Free ([4]; Pluronic P123, 1.0 mg/kg, Day 7): 100%
Percent (%) Mice Tumor Free ([4]; Pluronic P123, 1.0 mg/kg, Day 14): 80%
Percent (%) Mice Tumor Free ([4]; Pluronic P123, 1.0 mg/kg, Day 20): 60%
Percent (%) Mice Tumor Free ([4]; Pluronic P123, 1.2 mg/kg, Day 7, n = 3): 100^3%
Percent (%) Mice Tumor Free ([4]; Pluronic P123, 1.2 mg/kg, Day 14, n = 3): 67^3%
Percent (%) Mice Tumor Free ([4]; Pluronic P123, 1.2 mg/kg, Day 20, n = 3): 67^3%
Percent (%) Mice Tumor Free ([4]; Pluronic P123, 1.25 mg/kg, Day 7): 100%
Percent (%) Mice Tumor Free ([4]; Pluronic P123, 1.25 mg/kg, Day 14): 100%
Percent (%) Mice Tumor Free ([4]; Pluronic P123, 1.25 mg/kg, Day 20): 80%
PDT efficacy in tumor model ([4]; plasma /DMSO preparation): completely ineffective
Formulated drug concentration [5]: approximately 1.8 mg/ml

C=Cc1c(C)c2cc3nc(cc4[nH]c(cc5nc(cc1[nH]2)C(C)=C5CCC(=O)O)c(CCC(=O)OC)c4C)[C@@]1(C)C3=CC=C(C(=O)OC)[C@H]1C(=O)OC [BPD-MA, benzoporphyrin derivative mono-acid-ring A, reference compound]
Incubation time to 50% uptake level (L1210 cells [2]): approximately 5 min
Incubation time to peak / saturation of uptake (L1210 cells [2]): 30 min
LD50 (L1210 cells [3]; Carrier Liposomal, +FCS (10%)): 38.0 ng/mL
LD50 (L1210 cells [3]; [6]): 4.0 ng/mL
Percent (%) Mice Tumor Free [4, 7]: 100%
Percent (%) Mice Tumor Free ([4]; Liposomal, 1.0 mg/kg, Day 14): 100%
Percent (%) Mice Tumor Free ([4]; Liposomal, 1.0 mg/kg, Day 20): 30%
Percent (%) Mice Tumor Free ([4]; Pluronic F127, 1.0 mg/kg, Day 7): 100%
Percent (%) Mice Tumor Free ([4]; Pluronic F127, 1.0 mg/kg, Day 14): 60%
Percent (%) Mice Tumor Free ([4]; Pluronic F127, 1.0 mg/kg, Day 20): 60%
Formulated drug concentration [5]: ≤ 4 mg/mL
